Assay results taken from paper PMC11843613, “Further Optimization of the mGlu1 PAM VU6024578/BI02982816: Discovery and Characterization of VU6033685” (ACS Chemical Neuroscience, 2025).
Several values for one entry are separate records, joined by “and”; a condition that tells them apart may be missing. Identical values can stand only once. Like-named read-outs stand apart in the source and are kept apart here.

Legend:
[1] = Single IV bolus PK and tolerability in male beagle dogs; format: in vivo; conditions: male beagle dog, 0.5 mg/kg IV bolus
[2] = Sprague-Dawley, in vivo
[3] = system: amphetamine-induced hyperlocomotion in rats; assay: Rat amphetamine-induced hyperlocomotion (AHL) with satellite PK; format: in vivo
Method: (§1) mode (5.0 kV spray voltage). The calibration curves were constructed in blank plasma. All data were analyzed using AB Sciex Analyst software v1.5.1.
(§2) All animal study procedures were approved by the Institutional Animal Care and Use Committee and were conducted in accordance with the National Institutes of Health regulations of animal care covered in Principles of Laboratory Animal Care (National Institutes of Health). […]
(§3) GraphPad Prism (version 4.03, GraphPad, La Jolla, CA).
(§4) Amphetamine-induced hyperlocomotion (rat)
(§5) Adult male Sprague-Dawley rats placed into the activity chambers (Med Associates). Thirty minutes after placement in the chambers, the rats were administered VU6024578 (1-10 mg/kg p.o..) or vehicle. Sixty minutes later the rats were injected with amphetamine (0.75 mg/kg s.c. 1 ml/kg) or vehicle (saline) and placed back in the activity chambers for 90 minutes. The data for the studies were analyzed by a between-group 2 way analysis of variance for compound dose and time. Each dose group was compared with the vehicle control group. The calculations were performed and graphed using GraphPad Prism (version 4.03, GraphPad, La Jolla, CA). The AUC was analyzed by a 1-way ANOVA with a Dunnett’s post hoc test. […]

[4] = as above; format: in vivo; conditions: male, Sprague-Dawley, brain (unbound); for concentration at 1.25 h: sample @ 1.25 hr
Method: as §1, §2, §3, §4, §5

striatal DA release = assay: Electrically evoked striatal DA release in brain slices (fast scanning cyclic voltammetry); conditions: 10 μM PAM + 10 μM DHPG, mouse slices, 1 μM DHβE present
Method: into the home cage. The arena is then cleaned with 70% ethanol in between animals. The day of the test the animals are habituated to the dosing room for 2 hours. The animals were administered VU6024578 (1-10 mg/kg p.o.) or vehicle (10% Tween 80) and were placed back into their homecage for 60 min. The animals were then injected with MK-801 (0.075 mg/kg 1 ml/kg s.c.) and placed back in the homecage for 30 min. The animals are then placed into the arena with two identical familiar objects for ten minutes and then placed back into the home cage. The animals are then placed back into the arena with one of the familiar objects replaced with a novel object at 120 min after the familiar object exposure. The activity of the animals are recorded and the time spent exploring each of the objects is scored by a blinded observer. Recognition index is determined by subtracting […] divided by total time spent exploring.
Brain Slice Preparation and Fast Scanning Cyclic Voltammetry: […]
Electrically-evoked dopamine overflow was monitored with carbon fiber electrodes as previously reported (Foster et al. 2014). […]

SMILES: Cc1nc(C2CC2)ccc1CNC(=O)c1cc(-n2cccn2)ccc1Cl [compound 8]
- adverse events in dogs [1]: all dogs displayed dizziness, salivation, and uncoordinated movements
- clearance ([1]; plasma, read-out: CLp (dog)): 0.6 L/h/kg
- Vd ([1]; plasma, read-out: Vss (dog)): 4.6 L/kg
- half-life ([1]; plasma, read-out: t1/2 (dog) (converted)): 6.5 h
- free brain concentration (fold rat EC50) that was well tolerated [2]: up to 5.3 fold
- AHL efficacy compared with positive control 3 ([3]; rat): comparable efficacy to the standard 3
- minimum effective dose (MED) in AHL ([3]; rat PO): 10 mg/kg
- unbound brain concentration as fold of in vitro rat mGlu1 EC50 at efficacy in AHL ([3]; rat, 10 mg/kg MED, 10 mg/kg): ~0.74 fold and ~0.7 fold
- reversal of amphetamine-induced hyperlocomotion ([3]; rat, oral administration, amphetamine 0.75 mg/kg SC): dose-dependently reversed
- concentration at 1.25 h ([4]; rat PO 1 mg/kg, read-out: Brain Unbound at 1 mg/kg): 0.0161 µM
- concentration at 1.25 h ([4]; rat PO 3 mg/kg, read-out: Brain Unbound at 3 mg/kg): 0.0354 µM
- concentration at 2.5 h ([4]; rat PO 10 mg/kg, satellite PK, 2.5 h end of study (picture: sample @ 1.25 hr), read-out: free (unbound) brain concentration at 10 mg/kg): 0.0798 µM
- effect on striatal DA release when coapplied with subthreshold DHPG (striatal DA release): robust inhibition of DA release
